Assay results: patent US20170269060A1, “Assays and Compounds to Treat Kidney Diseases” (Rush University Medical Center, priority 2014, published 2017)

What was measured:
C57BL/6J mice = assay: LPS-induced proteinuria in mice; type: in vivo, mouse
Description: The induction of proteinuria in female wild type C57BL/6J mice (n=6-13 per group) by LPS injection was performed as described. (Reiser et al., J Clin Invest, 2004; Yanagida-Asanuma et al., The American Journal of Pathology, 2007; Faul et al., Nat Med, 2008; Yu et al., The New England Journal of Medicine, 2013.) Briefly, 10 week old female mice were intraperitoneally injected with LPS (10 mg/kg, in saline). Control mice were injected with saline alone. Animals in the treatment groups were treated with vehicle or 10 mg/kg pyr (stock in DMSO) diluted in saline 2 h prior to the administration of LPS. Spot urine was collected from each group of animals for measurement of albuminuria as mg albumin per mg creatinine. (Faul et al., Nat Med, 2008) Results are expressed as mean±SEM. The mice were sacrificed and the efficacy of pyrintegrin was further analyzed by histochemical and immunofluorescence analyses.
For light microscopy, freshly harvested mouse kidney tissue was embedded in OCT, snap frozen in liquid nitrogen and stored at −80° C. Tissue sections were cut and fixed in −20° C. acetone before immunofluorescence staining. Sections were blocked at room temperature for 1 h and incubated with the primary antibodies against total β1 integrin (hamster anti-mouse, BioLegend), active β1 integrin (Lentner et al., PNAS, 1993.) (rat anti-mouse antibody 9EG7, BD Biosciences) and synaptopodin (polyclonal goat, SC-21537, Santa Cruz) at 4° C. overnight. Slides were incubated with appropriate fluorescently labeled secondary antibodies (Life Technologies, CA) and mounted with DAPI containing mounting solution (Vector Laboratories, Burlingame, Calif.). Fluorescence images were acquired using a Zeiss 700 LSM confocal microscope with a 20× objective and analyzed using the Zen software (Carl Zeiss Group, Hartford, Conn.). For transmission electron microscopy (TEM), tissues were fixed, embedded, sectioned, and stained as previously described. Nature Medicine, 2008.) Images were acquired using Zeiss SIGMA HD VP electron microscope. […]

murine podocytes = assay: Primary HCS screen of chemical library, cell roundness Z score, PAN injury; type: cell-based; details: PAN 16 μg/ml, 48 hours; Z-score cutoff ≦−1.28
Description: Screening of chemical libraries, which include the MicroSource Spectrum collection (MicroSource Discovery Systems, Inc., Gaylorsville, C T, 2000 compounds) and Enzo kinase inhibitor array (Enzo Life Sciences, Farmingdale, N.Y., 80 compounds), Sigma, Millipore, Tocris and Cayman (41 compounds), was performed using multiwall plates. Podocytes cultured in multiwall plates were used in these assays. 100 nL of each compound, also in multiwall plates (at a stock concentration of 1 mM to 10 mM in DMSO), was added to each well of a podocyte containing multiwall plate using the Perkin Elmer Janus automated workstation with the help of a 96-pin or 384-pin pin tool (100 nL, PerkinElmer). The compounds were added in the absence or presence of podocyte damaging agent (such as PAN). The plates containing the compounds were subsequently placed in tissue culture incubators and cells were further cultured for 1-72 h at 37° C. A compound that decreased PAN damaged was identified by quantifying the changes in at least one of the following parameters: cell morphology, cell roundedness, F-actin intensity, number of focal adhesions, intensity or size of focal adhesions, length of actin fibers, size of actin fibers, percent damaged or percent healthy cells etc. In certain cases, hits were validated by acquiring a fresh batch of the compound from commercial sources and performing dose-response curves. Images from the primary screen were quantified for cell morphology parameter and were normalized by calculating z-score (z) for each test compound, to compensate for any plate-to-plate variability. (Wiggins, Kidney International, 2007) z was calculated for each of the test compounds using the formula: […]
where x is the raw measured value with each compound, μ is the mean of all measured raw values across a plate and a is the standard deviation of the measurements. A z-score of […], corresponding to 90% population under the curve, was used as a cutoff to identify primary hits in the assay.
To identify small molecules that protect podocytes from PAN injury, a chemical library of 2121 pharmacologically active compounds was screened. Podocytes were treated with compounds from the chemical library in the presence of PAN (16 μg/ml) at 37° C. for 48 hours. The assay plates also contained eight positive (PAN and MZR treatment) and eight negative (PAN treatment) control wells. Wells were imaged and analyzed, and the mean cell roundness per cell was calculated for each well. Mean cell roundness was normalized using plate-based positive and negative controls, and a Z score for the change in cell morphology on treatment with each compound (SD away from the plate mean) was calculated. The results from the screen are presented as a graph in FIG. 7A. Wells with nuclei counts. […] Primary hits (compounds that protected podocytes from PAN damage) were identified from the assay using a Z-score cutoff of ≦−1.28 corresponding to the 10% population on one side of the bell-shaped curve. […] Given that our assay is image based, the images from all initial hits were visually inspected manually, which eliminated 10 compounds as nonhits. […] The identified list of primary hit compounds included three Rho kinase inhibitors (Y27632, GSK 429286, and Thiazovivin) and a p38 kinase inhibitor (SB 203580). […] Next, to validate the hit compounds identified from our screen, selected primary hits were reanalyzed using independently obtained powder forms of the compounds.

O=S(=O)(NCC1CC1)c1ccc(Nc2nccc(N3CCCc4cc(O)ccc43)n2)cc1 [Pyrintegrin] was tested, and the “proteinuria, albumin per creatinine in urine” value (C57BL/6J mice; C57BL/6 mice, LPS 10 mg/kg i.p., pyrintegrin 10 mg/kg, 24 hours) was 0.668±0.074 mg albumin per 1 mg creatinine, the “active β1 integrin levels in glomeruli (antibody 9EG7)” value (C57BL/6J mice; mice, 24 hours after LPS, confocal microscopy) was “significant protection of the active β1 levels” and the “protection from LPS-induced podocyte FP effacement” value (C57BL/6J mice; mice, pyrintegrin 10 mg/kg, electron microscopy) was “significant protection”. The “primary hit (protects podocytes from PAN damage)” value (murine podocytes) was “top primary hit”.
